Laboratory results: patent US20220127297A1, “Novel Antibacterial 3"-Derivatives Of 4,6-Disubstituted 2,5-Dideoxystreptamine Aminoglycoside Antibiotics” (AGILeBiotics B.V., priority 2018, published 2022)
Converted amounts (≈) assume the structure as drawn. Like-named read-outs stand apart in the source and are kept apart here.

Experiments:
[1] = tested on: A. baumannii ATCC BAA-1800; assay: MIC 90, resistant ATCC strains of the ESKAPE panel; type: cell-based; conditions: Acinetobacter baumannii, ATCCBAA1800, MDR
From the text: (§1) 3.3 Protocol for MIC Determination (ATCC Strains)
(§2) Tested reference compounds. Amikacin sulfate (Cat. No. 01693, Chem-Impex), Gentamicin sulfate (Cat. No. G4918, Sigma Aldrich), Azithromycin (Cat. No. 1046056, USP), Ceftazidime Pentahydrate (Cat. No. 1098130, USP), Ciprofloxacin (Cat. No. 1134313, USP), Meropenem (Cat. No. 1392454, USP), Rifampicin (Cat. No. R0079, TCI), Tobramycin (Cat. No. 1667508, USP), Vancomycin (Cat. No. 1709007 USP).
(§3) Microbial strains. Staphylococcus aureus ATCC 29213, Staphylococcus aureus ATCC BAA-1717, Escherichia coli ATCC BAA-1025, Klebsiella pneumoniae ATCC BAA-1705, Klebsiella pneumoniae ATCC BAA-2524, Pseudomonas aeruginosa ATCC 27853, Pseudomonas aeruginosa ATCC BAA-2108, Acinetobacter baumannii ATCC BAA-1800.
(§4) Culture media and equipment. BBL™ Mueller Hinton Broth (REF 275730, Lot. 7009699, Becton Dickinson), Mueller Hinton Agar 2 (Ref. No. 97580-500G-F, Lot. No. BCBV4646, Sigma), Dulbecco's Modified Eagle's Medium (DMEM) (Cat. No. 41966-029, Gibco), Minimum Essential Medium (MEM) (Cat. No. 42360-024, Gibco), Fetal bovine serum (FBS) (Cat. No. F7524, Sigma), Non-essential amino acids (NEAA) (100×, Cat. No. 11140-035, Gibco), Sodium Pyruvate (100 mM, 100×, Cat. No. 11360-039, Gibco), Staurosporine (Cat. No. B50188, Biotrend), Cellstar 96-well plates U-bottom (Cat. No. 650180, Lot. No. E14123EB, Greiner Bio-one), CellTiter-Glo (Cat. No. G7573, Promega), 96-well plate V-bottom (Cat. No. 651201, Greiner), 96-well clear plate, U-bottom, (Cat. No. 650180, Greiner), 96-well white plate with clear bottom (Cat. No. 655098, Greiner), 96-well deep well plate 1 mL (Cat. No. 278606, Nunc), Sodium Pyruvate (100 mM, 100×, Gibco, Cat #11360-039), Incubator (Binder), Laminar flow (Thermo Scientific), BioPhotometer (Eppendorf); DEN-1B (McFarland Densitometer, Biosan); McFarland standards (polymer microparticle suspension, Biosan).
(§5) Compound preparation. The test compounds and reference antibiotics were prepared according to CLSI guidelines (Clinical and Laboratory Standards Institute (CLSI); Methods for dilution antimicrobial susceptibility tests for bacteria that grow aerobically; approved standard—ninth edition, M07-A9, Vol. 32, No. 2, 2012) as 5 mg/mL stock solutions in DMSO. Out of these DMSO solutions, 43.5 μL was transferred to 1656.5 μL of MH media in a deep well plate. Out of these working solutions 100 μL was transferred to wells in the third column of 96-well plates. Plates were previously filled with 50 μL of MH media in all wells except for the wells in the third column. After compound and antibiotic addition, 50 μL was transferred from the third to the fourth column, then from the fourth to the fifth and so on. In this manner, the compounds and antibiotics were plated in 96-well plate in serial two-fold dilutions giving a final concentration range of 64-0.125 μg/mL.
(§6) Preparation of microorganisms. Designations used for clinical isolates were from the Fidelta strain collection bank. Microorganisms used were all revived from skim milk storage at −70° C. by plating them on MH agar plates. The following day the single colony of each microorganism was again streaked on fresh agar plates. The next day, using the direct colony suspension method, broth solutions that achieve turbidity equivalent to 0.5 McFarland standard for each microorganism were prepared. […] Out of these suspensions, actual inoculums were prepared by diluting them 100× with MH media giving a final microorganism count of 2-8×10^5 CFU/mL. For each strain of microorganisms, 20 mL of these inoculum solutions were prepared. From the second to the twelfth column of 96-well plates, 50 μL of these solutions were transferred per well. To the first column, 50 μL per well of pure growth media was added. In this manner the first column was used as sterility control of media, the second column was used as control of microorganism's growth and the rest of the plate was used for MIC determination. All plates were incubated for 16-24 h at 37° C. […]

[2] = tested on: K. pneumoniae ATCC BAA-1705; assay: MIC 90, resistant ATCC strains of the ESKAPE panel; type: cell-based; conditions: Klebsiella pneumoniae, ATCCBAA1705, KPC
From the text: as §1, §2, §3, §4, §5, §6

[3] = tested on: K. pneumoniae ATCC BAA-2524; assay: MIC 90, resistant ATCC strains of the ESKAPE panel; type: cell-based; conditions: Klebsiella pneumoniae, ATCCBAA2524, OXA-48
From the text: as §1, §2, §3, §4, §5, §6

[4] = tested on: P. aeruginosa ATCC BAA-2108; assay: MIC 90, resistant ATCC strains of the ESKAPE panel; type: cell-based; conditions: Pseudomonas aeruginosa, ATCCBAA2108, MDR
From the text: as §1, §2, §3, §4, §5, §6

S. aureus ATCC BAA-1717 = assay: MIC 90, resistant ATCC strains of the ESKAPE panel; type: cell-based; conditions: Staphylococcus aureus, MRSA
From the text: as §1, §2, §3, §4, §5, §6

[5] = tested on: E. coli ATCC BAA-1025 (= BL 21); assay: MIC 90, broth micro-dilution, ATCC strains; type: cell-based, Escherichia coli
From the text: as §1, §2, §3, §4, §5, §6

P. aeruginosa ATCC 27853 = assay: MIC 90, broth micro-dilution, ATCC strains; type: cell-based, Pseudomonas aeruginosa
From the text: as §1, §2, §3, §4, §5, §6

S. aureus ATCC 29213 = assay: MIC 90, broth micro-dilution, ATCC strains; type: cell-based, Staphylococcus aureus
From the text: as §1, §2, §3, §4, §5, §6

[6] = Escherichia coli, ATCCBAA1025, read-out: MIC 90
[7] = Pseudomonas aeruginosa, ATCC27853, read-out: MIC 90
[8] = Staphylococcus aureus, ATCC29213, read-out: MIC 90

Row | SMILES | MIC90 [5, 6] [µM] | MIC90 (P. aeruginosa ATCC 27853; [7]) [µM] | MIC90 (S. aureus ATCC 29213; [8]) [µM] | MIC90 [5] [µM] | MIC90 (P. aeruginosa ATCC 27853) [µM] | MIC90 (S. aureus ATCC 29213) [µM] | other results
1 | N=C(NC[C@@H]1CCNC1)NC1[C@@H](O)C(OC2[C@@H](F)[C@H](O[C@H]3OC(CN)[C@@H](O)CC3N)C(N)C[C@H]2NC(=O)[C@@H](O)CCN)O[C@H](CO)[C@H]1O (stereo partly drawn) [ABX5039, Tobra-AHB-F-Gua (R) pyrrolidine-3-ylmethyl] |  |  |  |  |  |  | MIC90 [1]: 16 µg/mL (≈ 23 µM); MIC90 [2]: 4 µg/mL (≈ 5.75 µM); MIC90 [3]: 0.5 µg/mL (≈ 0.719 µM); MIC90 [4]: 8 µg/mL (≈ 11.5 µM); MIC90 (S. aureus ATCC BAA-1717): 0.5 µg/mL (≈ 0.719 µM)
2 | N=C(NCCN)NC1C(O)[C@@H](CO)OC(OC2C(F)[C@H](O[C@H]3OC(CN)[C@@H](O)CC3N)C(N)C[C@H]2NC(=O)[C@@H](O)CCN)[C@@H]1O (stereo partly shown) [ABX5020, Tobra-AHB-F-Gua-2-amino-ethyl] | 1 (≈ 0.656 µg/mL) | 0.25 (≈ 0.164 µg/mL) | 0.25 (≈ 0.164 µg/mL) |  |  |  | MIC90 [1]: 32 µg/mL (≈ 48.8 µM); MIC90 [2]: 8 µg/mL (≈ 12.2 µM); MIC90 [3]: 0.5 µg/mL (≈ 0.763 µM); MIC90 [4]: 2 µg/mL (≈ 3.05 µM); MIC90 (S. aureus ATCC BAA-1717): 0.25 µg/mL (≈ 0.381 µM)
3 | N=C(N)NC1[C@@H](O)C(OC2[C@@H](F)[C@H](O[C@H]3OC(CN)[C@@H](O)[C@H](O)C3O)C(N)C[C@H]2NC(=O)[C@@H](O)CCN)O[C@H](CO)[C@H]1O (stereo partly drawn) [ABX3003, 3′epi-KanaA-AHB-F-Gua] | 4 (≈ 2.52 µg/mL) | 8 (≈ 5.04 µg/mL) | 2 (≈ 1.26 µg/mL) |  |  |  | 
4 | NCC[C@H](O)C(=O)N[C@@H]1CC(N)[C@@H](O[C@H]2OC(CN)[C@@H](O)CC2N)[C@H](F)C1OC1O[C@H](CO)[C@@H](O)C(N)[C@H]1O (stereo partly shown) [ABX5024, Tobra-AHB-F] |  |  |  | 1 (≈ 0.571 µg/mL) | 2 (≈ 1.14 µg/mL) | 1 (≈ 0.571 µg/mL) | 
5 | NCCC(O)C(=O)NC1CC(N)C(OC2OC(CN)C(O)C(O)C2O)C(F)C1OC1OC(CO)C(O)C(N)C1O (stereo not drawn) [ABX3005, 3′Epi-KanaA-AHB-F] |  |  |  | 8 (≈ 4.7 µg/mL) | 8 (≈ 4.7 µg/mL) | 4 (≈ 2.35 µg/mL) | 
6 | N=C(N)NC1[C@@H](O)C(OC2[C@@H](F)[C@H](O[C@H]3OC(CN)[C@@H](O)[C@H](O)C3N)C(N)C[C@H]2NC(=O)[C@@H](O)CCN)O[C@H](CO)[C@H]1O (stereo partly drawn) [ABX4004, 3′epi-KanaB-AHB-F-Gua] | 2 (≈ 1.26 µg/mL) | 4 (≈ 2.51 µg/mL) | 2 (≈ 1.26 µg/mL) |  |  |  | 
7 | N=C(N)NC1[C@@H](O)C(OC2[C@@H](O)[C@H](O[C@H]3OC(CN)[C@@H](O)CC3N)C(N)C[C@H]2NC(=O)[C@@H](O)CCN)O[C@H](CO)[C@H]1O (stereo partly shown) [ABX5005, Tobra-AHB-Gua] |  |  |  | 2 (≈ 1.22 µg/mL) | 4 (≈ 2.44 µg/mL) | 1 (≈ 0.611 µg/mL) | 
8 | NCC[C@H](O)C(=O)N[C@@H]1CC(N)[C@@H](O[C@H]2OC(CN)[C@@H](O)[C@@H](O)C2N)[C@H](O)C1OC1O[C@H](CO)[C@@H](O)C(N)[C@H]1O (stereo partly drawn) [ABX4002, 3′Epi-KanaB-AHB] |  |  |  | 8 (≈ 4.68 µg/mL) | 4 (≈ 2.34 µg/mL) | 2 (≈ 1.17 µg/mL) | 
9 | N=C(NCCCN)NC1[C@@H](O)C(OC2[C@@H](F)[C@H](O[C@H]3OC(CN)[C@@H](O)CC3N)C(N)C[C@H]2NC(=O)[C@@H](O)CCN)O[C@H](CO)[C@H]1O (stereo partly shown) [ABX5030, Tobra-AHB-F-Gua-3-amino-propyl] | 1 (≈ 0.67 µg/mL) | 0.5 (≈ 0.335 µg/mL) | 0.5 (≈ 0.335 µg/mL) |  |  |  | 
